Structures are written as SMILES. In brackets after ≈: the same amount, converted by molar mass. Where two headings read alike, the source gives them in different places. Where only a bound is given, the exact number is not on record here.

Holding throughout (experiment): Agar diffusion assay for antibacterial activity (MIC)
Format in all cases: cell-based

The subject of test [1] is Staphylococcus aureus MB 4310. The note with it: read-out: Minimum inhibitory conc. As to the method:
(§1) A stock solution of each test compound was prepared at a concentration of 1.28 mg/ml using sterile distilled water. After initial solubilization, two-fold dilutions were prepared and added as one-ml portions to 15 x 100 mm petri plates. A nine-ml portion of trypticase soy agar (TSA) was melted and added to each plate. The test compound and agar were mixed and allowed to cool. […] Controls were prepared using norfloxacin, coumermycin A-1, or novobiocin, and solvent.
(§2) Each plate was inoculated using a multipoint inoculator with 10⁵ colony-forming units (cfu) of the appropriate bacterium. Each bacterium was stored at -70°C before use and cultured in trypticase soy broth (TSB) at 35°C for 18 hours. The cultures, containing ca. 10⁹ cfu/ml, were diluted as necessary with TSB to provide concentrations of 10⁵ cfu/inoculation spot. The test plates were then incubated at 35°C for 20 hours. Minimum inhibitory concentrations (MIC) for each compound was the lowest concentration that allowed no growth, a barely visible haze, of five or fewer discrete colonies.
(§3) Table VI includes biological test results for representative compounds of this invention using the agar diffusion assay described above. The particular bacterial strains used are representative of organisms for which the compounds are useful as antibacterial agents.

Test [2] relates to Pseudomonas aeruginosa MB 5160 (Norfloxacin-resistant strain). Conditions: 20 h, read-out: Minimum inhibitory conc. Here is the method:
as §1, §2, §3

A further test has as its system Escherichia coli MB 2891. Conditions: read-out: Minimum inhibitory conc. Here is the method: as §1, §2, §3
Test [3] relates to Streptococcus faecalis MB 2864. Conditions: Enterococcus faecalis, read-out: Minimum inhibitory conc. Here is the method: as §1, §2, §3
Test [4] concerns Proteus mirabilis MB 2830. The note with it: read-out: Minimum inhibitory conc. Here is the method: as §1, §2, §3
Test [5] relates to Pseudomonas aeruginosa MB 2835. The note with it: MB2835, Ps. aer., strain MB 2835, trypticase soy agar, 10⁵ cfu, 35°C, 20 hours, read-out: Minimum inhibitory conc. As to the method: as §1, §2, §3
The test system of test [6] is Escherichia coli MB 5158 (Norfloxacin-resistant strain). Conditions: 20 h, read-out: Minimum inhibitory conc. Here is the method:
as §1, §2, §3

The subject of test [7] is Staphylococcus aureus MB 2865. The note with it: read-out: Minimum inhibitory conc. Here is the method: as §1, §2, §3
Test [8] relates to Klebsiella pneumoniae MB 4005. Conditions: read-out: Minimum inhibitory conc. Here is the method:
as §1, §2, §3

The subject of another test is Escherichia coli MB 5157. Conditions: read-out: Minimum inhibitory conc. Here is the method:
as §1, §2, §3

[9] abbreviates: MB4310, St. aur., strain MB 4310, trypticase soy agar, 10⁵ cfu, 35°C, 20 hours.
The mark [10] stands for this setting: MB2891, E. coli, strain MB 2891, trypticase soy agar, 10⁵ cfu, 35°C, 20 hours.
The mark [11] stands for this setting: MB2864, Str. fae., strain MB 2864, trypticase soy agar, 10⁵ cfu, 35°C, 20 hours.
[12] abbreviates: MB2830, Pr. mir., strain MB 2830, trypticase soy agar, 10⁵ cfu, 35°C, 20 hours.
Where [13] appears, read: MB2865, St. aur., strain MB 2865, trypticase soy agar, 10⁵ cfu, 35°C, 20 hours.
Where [14] appears, read: MB4005, K. pneu., strain MB 4005, trypticase soy agar, 10⁵ cfu, 35°C, 20 hours.
Where [15] appears, read: MB5157, E. coli, strain MB 5157, trypticase soy agar, 10⁵ cfu, 35°C, 20 hours.

With `COc1ccc(-c2[nH]c(=O)c(C(=O)O)cc2-c2ccc(F)cc2)cc1` [Example 32, 5-(4-Fluorophenyl)-1,2-dihydro-6-(4-methoxyphenyl)-2-oxo-3-pyridinecarboxylic acid], the MIC in test [1] (setting [9]) is 1 µg/mL (≈ 2.95 µM); in test [2], greater than 128 µg/mL; in the test on Escherichia coli MB 2891 (setting [10]) it was 16 µg/mL (≈ 47.2 µM); in test [3] (setting [11]), 16 µg/mL (≈ 47.2 µM); in test [4] (setting [12]), 32 µg/mL (≈ 94.3 µM); in test [5] it was greater than 128 µg/mL. Besides, the MIC was greater than 128 µg/mL in test [6], 2 µg/mL (≈ 5.89 µM) in test [7] (setting [13]), 1 µg/mL (≈ 2.95 µM) in test [8] (setting [14]) and 4 µg/mL (≈ 11.8 µM) in the test with Escherichia coli MB 5157 (setting [15]).

As for `CN(C)c1ccc(-c2[nH]c(=O)c(C(=O)O)cc2-c2ccc(F)cc2)cc1` [Example 33], the MIC is 2 µg/mL (≈ 5.68 µM) in test [1] (setting [9]); greater than 128 µg/mL in test [2]; 16 µg/mL (≈ 45.4 µM) in the test on Escherichia coli MB 2891 (setting [10]); 128 µg/mL (≈ 363 µM) in [3] (setting [11]); 128 µg/mL (≈ 363 µM) in test [4] (setting [12]); greater than 128 µg/mL in test [5]. Also, the MIC was greater than 128 µg/mL in test [6], 2 µg/mL (≈ 5.68 µM) in test [7] (setting [13]), 8 µg/mL (≈ 22.7 µM) in test [8] (setting [14]) and 8 µg/mL (≈ 22.7 µM) in the test on Escherichia coli MB 5157 (setting [15]).

With `CN(C)c1ccc(-c2c(-c3ccc(F)cc3)cc(C(=O)O)c(=O)n2C)cc1` [Example 52], the MIC is 2 µg/mL (≈ 5.46 µM) in [1] (setting [9]); greater than 128 µg/mL in test [2]; 2 µg/mL (≈ 5.46 µM) in the test with Escherichia coli MB 2891 (setting [10]); greater than 128 µg/mL in test [3] (MB2864, 20 h); greater than 128 µg/mL in test [4] (MB2830, 20 h); greater than 128 µg/mL in test [5]. The MIC in test [6] is greater than 128 µg/mL; in test [7] (setting [13]) it was 2 µg/mL (≈ 5.46 µM); in test [8] (setting [14]), 64 µg/mL (≈ 175 µM); in the test on Escherichia coli MB 5157 (setting [15]), 4 µg/mL (≈ 10.9 µM).

In the case of `CSc1ccc(-c2[nH]c(=O)c(C(=O)O)cc2-c2ccc(F)cc2)cc1` [Example 36, 5-(4-fluorophenyl)-1,2-dihydro-6-[4-(methylthio)phenyl]-2-oxo-3-pyridine carboxylic acid], the MIC is 8 µg/mL (≈ 22.5 µM) in test [1] (setting [9]); greater than 128 µg/mL in [2]; 64 µg/mL (≈ 180 µM) in the test on Escherichia coli MB 2891 (setting [10]); 64 µg/mL (≈ 180 µM) in test [3] (setting [11]); greater than 128 µg/mL in test [4] (MB2830, 20 h); greater than 128 µg/mL in test [5]. For the same compound, the MIC in [6] was greater than 128 µg/mL; in [7] (setting [13]) it was 8 µg/mL (≈ 22.5 µM); in test [8] (setting [14]), 16 µg/mL (≈ 45 µM); in the test on Escherichia coli MB 5157 (setting [15]), 16 µg/mL (≈ 45 µM).

Turning to `CN(C)c1ccc(-c2[nH]c(=O)c(C(=O)O)cc2-c2ccc(O)cc2)c(F)c1` [Example 35], the MIC in test [1] (setting [9]) was 1 µg/mL (≈ 2.71 µM); in test [2], greater than 128 µg/mL; in the test on Escherichia coli MB 2891 (setting [10]) it was 1 µg/mL (≈ 2.71 µM); in [3] (setting [11]) it was 4 µg/mL (≈ 10.9 µM); in test [4] (setting [12]), 32 µg/mL (≈ 86.9 µM); in test [5] it was greater than 128 µg/mL. For the same compound, the MIC in [6] was greater than 128 µg/mL; in [7] (setting [13]), 0.5 µg/mL (≈ 1.36 µM); in test [8] (setting [14]), 1 µg/mL (≈ 2.71 µM); in the test on Escherichia coli MB 5157 (setting [15]) it was 1 µg/mL (≈ 2.71 µM).

On to `CN(C)c1ccc(-c2[nH]c(=O)c(C(=O)O)cc2-c2ccc(O)cc2)cc1` [Example 30], for which the MIC in test [1] (setting [9]) was 0.25 µg/mL (≈ 0.714 µM); in [2] it was greater than 128 µg/mL; in the test on Escherichia coli MB 2891 (setting [10]), 0.25 µg/mL (≈ 0.714 µM); in [3] (setting [11]), 0.5 µg/mL (≈ 1.43 µM); in test [4] (setting [12]), 8 µg/mL (≈ 22.8 µM); in test [5], greater than 128 µg/mL. Besides, the MIC is greater than 128 µg/mL in test [6], 0.25 µg/mL (≈ 0.714 µM) in [7] (setting [13]), less than 0.25 µg/mL in test [8] (setting [14]) and 0.25 µg/mL (≈ 0.714 µM) with Escherichia coli MB 5157 (setting [15]).

Consider `C[N+](C)([O-])c1ccc(-c2[nH]c(=O)c(C(=O)O)cc2-c2ccc(F)cc2)cc1` [Example 49], for which the MIC in test [1] (setting [9]) is 0.5 µg/mL (≈ 1.36 µM); in [2] it was greater than 128 µg/mL; in the test on Escherichia coli MB 2891 (setting [10]), 32 µg/mL (≈ 86.9 µM); in test [3] (setting [11]) it was 16 µg/mL (≈ 43.4 µM); in test [4] (setting [12]) it was 64 µg/mL (≈ 174 µM); in test [5], greater than 128 µg/mL. The MIC in test [6] was greater than 128 µg/mL; in test [7] (setting [13]), 1 µg/mL (≈ 2.71 µM); in test [8] (setting [14]), 8 µg/mL (≈ 21.7 µM); in the test on Escherichia coli MB 5157 (setting [15]), 4 µg/mL (≈ 10.9 µM).

Take `CS(=O)(=O)c1ccc(-c2[nH]c(=O)c(C(=O)O)cc2-c2ccc(F)cc2)cc1` [Example 47, 5-(4-Fluorophenyl)-1,2-dihydro-6-[4-(methylsulfonyl)phenyl]-2-oxo-3-pyridinecarboxylic acid]: the MIC in test [1] (MB4310, 20 h) is greater than 128 µg/mL; in [2] it was greater than 128 µg/mL; in the test with Escherichia coli MB 2891 (MB2891, 20 h), greater than 128 µg/mL; in test [3] (MB2864, 20 h) it was greater than 128 µg/mL; in test [4] (MB2830, 20 h) it was greater than 128 µg/mL; in test [5], greater than 128 µg/mL. In addition, the MIC in test [6] is greater than 128 µg/mL; in [7] (MB2865, 20 h), greater than 128 µg/mL; in test [8] (MB4005, 20 h), greater than 128 µg/mL; in the test on Escherichia coli MB 5157 (MB5157, 20 h), greater than 128 µg/mL.
